Experiment [1] addresses T1, protein-protein interaction between oligomeric amyloid-β and PrP^c (Homo sapiens, UniProt P04156). The format is binding.
Experiment [2] has as its target T1, protein-protein interaction between oligomeric amyloid-β and PrP^c. The following applies: cited from earlier work.
Experiment [3] deals with Experimental Autoimmune Encephalomyelitis (EAE). Nature of the experiment: Mouse Experimental Autoimmune Encephalomyelitis (EAE) model, clinical score. The class given is in vivo, C57B1.6 mice. The following applies: 100 ng/dose i.v. every other day from day 18.

With dextran, the “competition for the protein-protein interaction (in words)” value in experiment [1] is “failed to compete appreciably”.
On to dextran sulphate sodium salt [DSSS], for which, in experiment [1], the “Competable binding (%)” value was 101 ± 2%; the Hill coefficient is 1.51 ± 0.06; the “IC50” value worked out at 0.62 ± 0.07 µg/mL; the “competition for the protein-protein interaction (in words)” value is “competed for the protein-protein interaction between oligomeric amyloid-β and PrP^c in a concentration dependent manner”. Besides, in experiment [2], the “effective concentrations to compete with the protein-protein interaction (Aimi et al.)” value is on record as “in the low μg/ml range”.

B1: HGF: Hepatocyte growth factor (HGF) recombinant mouse (R&D Systems) (protein, UniProt Q08048 33-495; Q08048 496-728, looked up)
Hepatocyte growth factor …: QKKRRNTLHEFKKSAKTTLTKEDPLLKIKTKKVNSADECANRCIRNRGFTFTCKAFVFDKSRKRCYWYPFNSMSSGVKKGFGHEFDLYENKDYIRNCIIGKGGSYKGTVSITKSGIKCQPWNSMIPHEHSFLPSSYRGKDLQENYCRNPRGEEGGPWCFTSNPEVRYEVCDIPQCSEVECMTCNGESYRGPMDHTESGKTCQRWDQQTPHRHKFLPERYPDKGFDDNYCRNPDGKPRPWCYTLDPDTPWEYCAIKTCAHSAVNETDVPMETTECIQGQGEGYRGTSNTIWNGIPCQRWDSQYPHKHDITPENFKCKDLRENYCRNPDGAESPWCFTTDPNIRVGYCSQIPKCDVSSGQDCYRGNGKNYMGNLSKTRSGLTCSMWDKNMEDLHRHIFWEPDASKLNKNYCRNPDDDAHGPWCYTGNPLIPWDYCPISRCEGDTTPTIVNLDHPVISCAKTKQLR
Hepatocyte growth factor beta …: VVNGIPTQTTVGWMVSLKYRNKHICGGSLIKESWVLTARQCFPARNKDLKDYEAWLGIHDVHERGEEKRKQILNISQLVYGPEGSDLVLLKLARPAILDNFVSTIDLPSYGCTIPEKTTCSIYGWGYTGLINADGLLRVAHLYIMGNEKCSQHHQGKVTLNESELCAGAEKIGSGPCEGDYGGPLICEQHKMRMVLGVIVPGRGCAIPNRPGIFVRVAYYAKWIHKVILTYKL
For the molecule B1, the “mean EAE score vs vehicle” value in experiment [3] is reported as “did not result in any significant difference”.

By Hill coefficient is commonly meant a measure of the steepness of the concentration-response curve. One may read the IC50 as the midpoint of a concentration-inhibition curve. A low value points to inhibition by little substance.

The record behind these values is patent US11534457B2, “Use of dextran sulfate” (priority 2017, dated 2022).
